Assays:
[1] = molecular target: T1, acetylcholinesterase (Rattus norvegicus, UniProt P37136); assay: biochemical; type: biochemical; details: rat cortex enzyme; for acetylcholinesterase inhibitory activity inhibition ratio (%): final concentration 4×10−5 mol/L; for IC50: read-out: acetylcholinesterase inhibitory activity IC50 (nmol)
T1 construct: Acetylcholinesterase: rat cortex; from tissue; host or cells: rat cortex
T1 sequence (P37136 32-614): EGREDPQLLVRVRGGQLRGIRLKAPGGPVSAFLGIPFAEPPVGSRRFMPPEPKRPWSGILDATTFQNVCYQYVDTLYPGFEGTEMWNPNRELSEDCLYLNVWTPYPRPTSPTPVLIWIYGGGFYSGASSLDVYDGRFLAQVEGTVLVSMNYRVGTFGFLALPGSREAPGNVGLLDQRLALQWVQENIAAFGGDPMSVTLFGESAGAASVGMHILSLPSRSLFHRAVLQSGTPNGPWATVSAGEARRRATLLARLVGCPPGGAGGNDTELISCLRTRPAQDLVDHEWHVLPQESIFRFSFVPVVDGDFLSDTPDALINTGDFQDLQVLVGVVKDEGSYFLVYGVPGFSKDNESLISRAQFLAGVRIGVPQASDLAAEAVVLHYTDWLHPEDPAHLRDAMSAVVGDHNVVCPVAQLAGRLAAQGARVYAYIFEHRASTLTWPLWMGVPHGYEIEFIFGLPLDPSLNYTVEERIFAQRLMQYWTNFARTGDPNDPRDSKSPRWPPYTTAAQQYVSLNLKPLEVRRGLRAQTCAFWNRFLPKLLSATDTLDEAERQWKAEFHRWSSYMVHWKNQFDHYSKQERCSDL
Procedure: (§1) Sample processing: All samples were formulated as 10-2 mol/L solution by using 100% DMSO. 10-2 mol/L solution was used in microdetermination. 1 μL was taken to use in single tube experiment.
(§2) Solvent control: 0.4% DMSO was used in microdetermination. The inhibition ratio of the sample was obtained wherein the effect of solvent was deducted.
Acetylcholinesterase: rat cortex

[2] = molecular target: T2, butyrylcholinesterase (Rattus norvegicus, UniProt Q9JKC1); assay: inhibition of butyrylcholinesterase (rat serum); type: biochemical; details: rat serum enzyme; final concentration 4×10−5 mol/L
T2 construct: Butyrylcholinesterase: rat serum; from tissue; host or cells: rat serum
Procedure: as §1, §2
Butyrylcholinesterase: rat serum

T2 sequence (Q9JKC1 24-597): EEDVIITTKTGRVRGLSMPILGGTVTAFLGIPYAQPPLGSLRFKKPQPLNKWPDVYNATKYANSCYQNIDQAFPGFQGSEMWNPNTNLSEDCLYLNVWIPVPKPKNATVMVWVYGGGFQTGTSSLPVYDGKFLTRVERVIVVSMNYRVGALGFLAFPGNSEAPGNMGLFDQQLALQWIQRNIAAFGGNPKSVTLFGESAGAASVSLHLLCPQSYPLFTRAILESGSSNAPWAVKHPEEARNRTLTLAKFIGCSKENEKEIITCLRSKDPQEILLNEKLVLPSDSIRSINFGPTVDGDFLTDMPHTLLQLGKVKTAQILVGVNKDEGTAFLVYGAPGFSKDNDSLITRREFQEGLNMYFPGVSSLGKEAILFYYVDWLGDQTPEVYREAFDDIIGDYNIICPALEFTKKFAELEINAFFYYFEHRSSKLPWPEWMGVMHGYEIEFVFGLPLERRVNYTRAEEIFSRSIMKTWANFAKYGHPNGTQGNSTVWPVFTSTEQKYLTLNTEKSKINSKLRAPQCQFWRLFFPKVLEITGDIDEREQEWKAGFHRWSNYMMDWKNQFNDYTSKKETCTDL

Row | Compound | acetylcholinesterase inhibitory activity inhibition ratio (%) [1] | IC50 [1] | butyrylcholinesterase inhibitory activity inhibition ratio (%) [2]
1 | O=C1c2cc(OCC(F)F)c(OCC(F)F)cc2CC1CC1(F)CCN(Cc2ccccc2F)CC1 (centres unmarked) [DC105, 5,6-bis(2,2-difluoroethoxy)-2-((4-fluoro-1-(2-fluorobenzyl)piperidin-4-yl)methyl)-2,3-dihydro-1H-inden-1-one] | 98.14% | 0.99 nM | 61.5%
2 | COc1cc2c(cc1OC)C(=O)C(CC1(F)CCN(Cc3cc(C(F)(F)F)cc(C(F)(F)F)c3)CC1)C2 (centres unmarked) [DC22, 2-((1-(3,5-bis(trifluoromethyl)benzyl)-4-fluoropiperidin-4-yl)methyl)-5,6-dimethoxy-2,3-dihydro-1H-inden-1-one] | 58.49% | – | 4.36%
3 | COc1cc2c(cc1OC)C(=O)C(CC1(F)CCN(Cc3ccccc3C(F)(F)F)CC1)C2 (centres unmarked) [DC18, 2-((4-fluoro-1-(2-(trifluoromethyl)benzyl)piperidin-4-yl)methyl)-5,6-dimethoxy-2,3-dihydro-1H-inden-1-one] | 93.80% | – | 14.99%
4 | COc1cc2c(cc1OC)C(=O)C(CC1(F)CCN(Cc3ccccc3F)C(C(=O)O)C1)C2 (centres unmarked) [DC108, 4-((5,6-dimethoxy-1-oxo-2,3-dihydro-1H-inden-2-yl)methyl)-4-fluoro-1-(2-fluorobenzyl)piperidine-2-carboxylic acid] | 82.49% | 9.96 nM | 71.58%
5 | COc1cc2c(cc1OC)C(=O)C(CC1(F)CC3CCC(C1)N3Cc1cccc(C)c1)C2 (centres unmarked) [DC69, 2-((3-fluoro-8-(3-methylbenzyl)-8-azabicyclo[3.2.1]octan-3-yl)methyl)-5,6-dimethoxy-2,3-dihydro-1H-inden-1-one] | 97.49% | – | 58.86%
6 | COc1cc2c(cc1OC)C(=O)C(CC1(F)CCN(Cc3ccc(F)cc3)CC1)C2 (centres unmarked) [DC5, 2-((4-fluoro-1-(4-fluorobenzyl)piperidin-4-yl)methyl)-5,6-dimethoxy-2,3-dihydro-1H-inden-1-one] | 82.04% | 2.67 nM | 0.00%
7 | COc1cc2c(cc1OC)C(=O)C(CC1(F)CCN(CC3CCCCC3)CC1)C2 (centres unmarked) [DC33, 2-((1-(cyclohexylmethyl)-4-fluoropiperidin-4-yl)methyl)-5,6-dimethoxy-2,3-dihydro-1H-inden-1-one] | 90.10% | – | 0.36%
8 | COc1cc2c(cc1OC)C(=O)C(CC1(F)CC3CCC(C1)N3Cc1cc(F)c(F)cc1F)C2 (centres unmarked) [DC57, 2-((3-fluoro-8-(2,4,5-trifluorobenzyl)-8-azabicyclo[3.2.1]octan-3-yl)methyl)-5,6-dimethoxy-2,3-dihydro-1H-inden-1-one] | 96.75% | – | 1017%
9 | COc1cc2c(cc1OC)C(=O)C(CC1(F)CCN(Cc3ccc(OC(F)(F)F)cc3)CC1)C2 (centres unmarked) [DC6, 2-((4-fluoro-1-(4-(trifluoromethoxy)benzyl)piperidin-4-yl)methyl)-5,6-dimethoxy-2,3-dihydro-1H-inden-1-one] | 51.7% | – | 1.24%
10 | COc1cc2c(cc1OC)C(=O)C(CC1(F)CCN(Cc3ccccc3C#N)CC1)C2 (centres unmarked) [DC3, 2-((4-((5,6-dimethoxy-1-oxo-2,3-dihydro-1H-inden-2-yl)methyl)-4-fluoropiperidin-1-yl)methyl)benzonitrile] | 80.04% | – | 36.42%
11 | COc1cc2c(cc1OC)C(=O)C(CC1(F)CCN(Cc3cccc(C)c3)CC1)C2 (centres unmarked) [DC29, 2-((4-fluoro-1-(3-methylbenzyl)piperidin-4-yl)methyl)-5,6-dimethoxy-2,3-dihydro-1H-inden-1-one] | 97.78% | – | 64.92%
12 | COc1cc2c(cc1OC)C(=O)C(CC1(F)CC3CCC(C1)N3Cc1ccccc1C#N)C2 (centres unmarked) [DC43, 2-((3-((5,6-dimethoxy-1-oxo-2,3-dihydro-1H-inden-2-yl)methyl)-3-fluoro-8-azabicyclo[3.2.1]octan-8-yl)methyl)benzonitrile] | 88.9% | – | –
13 | O=C1c2cc(OCC(F)(F)F)c(OCC(F)(F)F)cc2CC1CC1(F)CCN(Cc2ccccc2F)CC1 (centres unmarked) [DC103, 2-((4-fluoro-1-(2-fluorobenzyl)piperidin-4-yl)methyl)-5,6-bis(2,2,2-trifluoroethoxy)-2,3-dihydro-1H-inden-1-one] | 92.04% | 0.86 nM | 70.0%
14 | COc1cc2c(cc1OC)C(=O)C(CC1(F)CCN(CC3CCCCCC3)CC1)C2 (centres unmarked) [DC34, 2-((1-(cycloheptylmethyl)-4-fluoropiperidin-4-yl)methyl)-5,6-dimethoxy-2,3-dihydro-1H-inden-1-one] | 95.57% | – | 68.48%
15 | COc1cc2c(cc1OC)C(=O)C(CC1(F)CC3CCC(C1)N3Cc1ccc(C(C)(C)C)cc1)C2 (centres unmarked) [DC47, 2-((8-(4-(tert-butyl)benzyl)-3-fluoro-8-azabicyclo[3.2.1]octan-3-yl)methyl)-5,6-dimethoxy-2,3-dihydro-1H-inden-1-one] | 75.33% | – | 7.63%
16 | COc1cc2c(cc1OC)C(=O)C(CC1(F)CC3CCC(C1)N3Cc1c(F)cccc1[N+](=O)[O-])C2 (centres unmarked) [DC48, 2-((3-fluoro-8-(2-fluoro-6-nitrobenzyl)-8-azabicyclo[3.2.1]octan-3-yl)methyl)-5,6-dimethoxy-2,3-dihydro-1H-inden-1-one] | 77.3% | – | –
17 | COc1cc2c(cc1OC)C(=O)C(CC1(F)CC3CCC(C1)N3Cc1ccccc1Br)C2 (centres unmarked) [DC54, 2-((8-(2-bromobenzyl)-3-fluoro-8-azabicyclo[3.2.1]octan-3-yl)methyl)-5,6-dimethoxy-2,3-dihydro-1H-inden-1-one] | 90.3% | – | –
18 | COc1cc2c(cc1OC)C(=O)C(CC1(F)CC3CCC(C1)N3Cc1ccc([N+](=O)[O-])cc1)C2 (centres unmarked) [DC41, 2-((3-fluoro-8-(4-nitrobenzyl)-8-azabicyclo[3.2.1]octan-3-yl)methyl)-5,6-dimethoxy-2,3-dihydro-1H-inden-1-one] | 56.8% | – | –
19 | COc1cc2c(cc1OC)C(=O)C(CC1(F)CCN(Cc3c(F)c(F)c(F)c(F)c3F)CC1)C2 (centres unmarked) [DC28, 2-((4-fluoro-1-((perfluorophenyl)methyl)piperidin-4-yl)methyl)-5,6-dimethoxy-2,3-dihydro-1H-inden-1-one] | 96.5% | – | –
20 | COc1cc2c(cc1OC)C(=O)C(CC1(F)CC3CCC(C1)N3Cc1ccc(-c3ccccc3)cc1)C2 (centres unmarked) [DC76, 2-((8-([1,1′-biphenyl]-4-ylmethyl)-3-fluoro-8-azabicyclo[3.2.1]octan-3-yl)methyl)-5,6-dimethoxy-2,3-dihydro-1H-inden-1-one] | 85.3% | – | –

From patent publication US20150284331A1 (priority 2012, published 2015)
